Data from US9951065B2 (Gilead Sciences, Inc., priority 2015, dated 2018).

target: T1, IDO1 (Homo sapiens, UniProt P14902); assay: Cell-based (HeLa) assay for measurement of IDO1 inhibition (kynurenine levels in supernatant after IFNγ induction); conditions: HeLa cells, IFNγ-induced IDO1, kynurenine in supernatant after 48 hour incubation; geometric mean of a minimum of four determinations
T1 construct: HeLa cells were treated with a test compound in the presence of IFNγ, which induces IDO1 expression; host or cells: H1-HeLa cells, IDO1 induced with IFNγ
T1 sequence (P14902 whole entry): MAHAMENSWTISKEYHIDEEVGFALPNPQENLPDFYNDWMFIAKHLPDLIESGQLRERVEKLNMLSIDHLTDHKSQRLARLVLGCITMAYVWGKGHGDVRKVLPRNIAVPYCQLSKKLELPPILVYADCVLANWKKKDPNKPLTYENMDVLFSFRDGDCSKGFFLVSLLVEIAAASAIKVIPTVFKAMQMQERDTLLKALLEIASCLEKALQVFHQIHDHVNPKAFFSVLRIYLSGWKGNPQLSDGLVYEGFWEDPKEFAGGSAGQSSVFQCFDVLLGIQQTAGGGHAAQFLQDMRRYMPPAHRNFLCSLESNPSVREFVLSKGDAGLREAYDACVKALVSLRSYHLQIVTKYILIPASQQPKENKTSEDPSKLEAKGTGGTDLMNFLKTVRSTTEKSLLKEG
In short: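 HeLa cells, 1,250 per well, treated with compound (0.5% DMSO final) plus IFNγ to induce IDO1, for 48 h. Supernatant kynurenine measured by TCA hydrolysis at 60 °C, then p-dimethylaminobenzaldehyde, absorbance 480 nm. EC50 from a four-parameter fit normalized to −/+IFNγ controls; geometric mean of at least four runs.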

EC50 [nM] | Structure (SMILES)
2380 | CN(CCNc1nc2nccc(/C(=N/O)Nc3ccc(F)c(Cl)c3)c2[nH]1)CC(F)F [Example 220, N-(3-chloro-4-fluorophenyl)-2-((2-((2,2-difluoroethyl)(methyl)amino)ethyl)amino)-N′-hydroxy-1H-imidazo[4,5-b]pyridine-7-carboximidamide]
3240 | O/N=C(\Nc1ccc(F)c(Cl)c1)c1ccnc2nc(CCN3CCC(O)CC3)[nH]c12 [Example 262, N-(3-chloro-4-fluorophenyl)-N′-hydroxy-2-(2-(4-hydroxypiperidin-1-yl)ethyl)-1H-imidazo[4,5-b]pyridine-7-carboximidamide]
590 | CC(C)N(C)CCNc1nc2nccc(/C(=N/O)Nc3ccc(F)c(Cl)c3)c2[nH]1 [Example 240, N-(3-chloro-4-fluorophenyl)-N′-hydroxy-2-((2-(isopropyl(methyl)amino)ethyl)amino)-1H-imidazo[4,5-b]pyridine-7-carboximidamide]
461 | CN(C)CCc1nc2c(/C(=N/O)Nc3ccc(F)c(Br)c3)cc(F)c(F)c2[nH]1 [Example 54, N-(3-Bromo-4-fluorophenyl)-2-(2-(dimethylamino)ethyl)-6,7-difluoro-N′-hydroxy-1H-benzo[d]imidazole-4-carboximidamide]
979 | O/N=C(\Nc1cccc(Br)c1)c1ccnc2nc(CCN3CCCC3)[nH]c12 [Example 269, N-(3-bromophenyl)-N′-hydroxy-2-(2-(pyrrolidin-1-yl)ethyl)-1H-imidazo[4,5-b]pyridine-7-carboximidamide]
7490 | O/N=C(\Nc1ccc(F)c(Cl)c1)c1ccnc2nc(CNCCc3ncccn3)[nH]c12 [Example 137, N-(3-Chloro-4-fluorophenyl)-N′-hydroxy-2-(((2-(pyrimidin-2-yl)ethyl)amino)methyl)-1H-imidazo[4,5-b]pyridine-7-carboximidamide]
423 | CCOC(=O)Nc1nc2nccc(/C(=N/O)Nc3ccc(F)c(Cl)c3)c2[nH]1 [Example 160, Ethyl (7-(N-(3-chloro-4-fluorophenyl)-N′-hydroxycarbamimidoyl)-1H-imidazo[4,5-b]pyridin-2-yl)carbamate]

More lines, now with the values behind:

Structure (SMILES) | EC50 [nM]
O/N=C(\Nc1ccc(F)c(OC(F)(F)F)c1)c1ccnc2nc[nH]c12 [Example 101, N-(4-Fluoro-3-(trifluoromethoxy)phenyl)-N′-hydroxy-1H-imidazo[4,5-b]pyridine-7-carboximidamide] | 845
O/N=C(\Nc1ccc(Br)cc1)c1ccnc2nc[nH]c12 [Example 88, N-(4-Bromophenyl)-N′-hydroxy-1H-imidazo[4,5-b]pyridine-7-carboximidamide] | 916
O/N=C(\Nc1ccc2c(c1)OC(F)(F)O2)c1ccnc2nc[nH]c12 [Example 74, N-(2,2-Difluorobenzo[d][1,3]dioxol-5-yl)-N′-hydroxy-1H-imidazo[4,5-b]pyridine-7-carboximidamide] | 923
Nc1nc2c(F)c(F)cc(/C(=N/O)Nc3ccc(F)c(Br)c3)c2[nH]1 [Example 14, 2-Amino-N-(3-bromo-4-fluorophenyl)-4,5-difluoro-N′-hydroxy-1H-benzo[d]imidazole-7-carboximidamide] | 494
O/N=C(\Nc1cc(Cl)c(F)cc1F)c1ccnc2nc[nH]c12 [Example 62, N-(5-Chloro-2,4-difluorophenyl)-N′-hydroxy-1H-imidazo[4,5-b]pyridine-7-carboximidamide] | 385
O/N=C(\Nc1ccc(F)c(Cl)c1)c1cc(F)c(F)c2nc(N3CCOCC3)[nH]c12 [Example 32, N-(3-Chloro-4-fluorophenyl)-4,5-difluoro-N′-hydroxy-2-morpholino-1H-benzo-[d]imidazole-7-carboximidamide] | 9280
O/N=C(\Nc1cccc(C(F)(F)F)c1)c1ccnc2nc[nH]c12 [Example 73, N′-Hydroxy-N-(3-(trifluoromethyl)phenyl)-1H-imidazo[4,5-b]pyridine-7-carboximidamide] | 373

same assay, conditions: HeLa cells, IFNγ-induced IDO1, kynurenine in supernatant, 48 hour incubation; geometric mean of a minimum of four determinations

EC50 [nM] | Structure (SMILES)
1190 | CCN(CC)[C@H]1COC[C@@H]1Nc1nc2nccc(C(=NO)Nc3ccc(F)c(Cl)c3)c2[nH]1 [Example 480, N-(3-chloro-4-fluorophenyl)-2-(((3R,4R)-4-(diethylamino)tetrahydrofuran-3-yl)amino)-N′-hydroxy-1H-imidazo[4,5-b]pyridine-7-carboximidamide]
1230 | CN(CCc1nc2nccc(/C(=N/O)Nc3ccc(F)c(Cl)c3)c2[nH]1)CC(C)(C)C [Example 392, N-(3-chloro-4-fluorophenyl)-N′-hydroxy-2-(2-(methyl(neopentyl)amino)ethyl)-1H-imidazo[4,5-b]pyridine-7-carboximidamide]
1010 | C[C@@H]1CN(CCNc2nc3nccc(/C(=N/O)Nc4ccc(F)c(Cl)c4)c3[nH]2)C[C@H](C)O1 [Example 478, N-(3-chloro-4-fluorophenyl)-2-((2-((2S,6R)-2,6-dimethylmorpholino)ethyl)amino)-N′-hydroxy-1H-imidazo[4,5-b]pyridine-7-carboximidamide]
2810 | CN(CCc1nc2nccc(/C(=N/O)Nc3ccc(F)c(Cl)c3)c2[nH]1)CC1COCCO1 (centres unmarked) [Example 400, 2-(2-(((1,4-dioxan-2-yl)methyl)(methyl)amino)ethyl)-N-(3-chloro-4-fluorophenyl)-N′-hydroxy-1H-imidazo[4,5-b]pyridine-7-carboximidamide]
917 | O/N=C(\Nc1ccc(F)c(Cl)c1)c1ccnc2nc(NCCN3CCC(F)(F)C3)[nH]c12 [Example 491, N-(3-chloro-4-fluorophenyl)-2-((2-(3,3-difluoropyrrolidin-1-yl)ethyl)amino)-N′-hydroxy-1H-imidazo[4,5-b]pyridine-7-carboximidamide]
435 | CN(C)CCNc1nc2cc(F)cc(/C(=N/O)Nc3ccc(F)c(Cl)c3)c2[nH]1 [Example 379, N-(3-chloro-4-fluorophenyl)-2-((2-(dimethylamino)ethyl)amino)-5-fluoro-N′-hydroxy-1H-benzo[d]imidazole-7-carboximidamide]

More lines, now with the values behind:

Structure (SMILES) | EC50 [nM]
COC(=O)NCCNc1nc2c(F)c(F)cc(/C(=N/O)Nc3ccc(F)c(Cl)c3)c2[nH]1 [Example 337, Methyl (2-((7-(N-(3-chloro-4-fluorophenyl)-N′-hydroxycarbamimidoyl)-4,5-difluoro-1H-benzo[d]imidazol-2-yl)amino)ethyl)carbamate] | 4410
O/N=C(\Nc1ccc(F)c(Cl)c1)c1cc(F)c(F)c2nc(NCC3COCCN3)[nH]c12 (centres unmarked) [Example 467, N-(3-chloro-4-fluorophenyl)-4,5-difluoro-N′-hydroxy-2-((morpholin-3-ylmethyl)amino)-1H-benzo[d]imidazole-7-carboximidamide] | 2120
O/N=C(\Nc1ccc(F)c(Cl)c1)c1cc(F)c(F)c2nc(NCc3ccccn3)[nH]c12 [Example 342, N-(3-chloro-4-fluorophenyl)-4,5-difluoro-N′-hydroxy-2-((pyridin-2-ylmethyl)amino)-1H-benzo[d]imidazole-7-carboximidamide] | 8490
CN(C)CCCNc1nc2c(F)c(F)cc(/C(=N/O)Nc3cccc(Cl)c3)c2[nH]1 [Example 385, N-(3-chlorophenyl)-2-((3-(dimethylamino)propyl)amino)-4,5-difluoro-N′-hydroxy-1H-benzo[d]imidazole-7-carboximidamide] | 580
CC(CNc1nc2c(F)c(F)cc(/C(=N/O)Nc3ccc(F)c(Cl)c3)c2[nH]1)CN(C)C (centres unmarked) [Example 352, N-(3-chloro-4-fluorophenyl)-2-((3-(dimethylamino)-2-methylpropyl)amino)-4,5-difluoro-N′-hydroxy-1H-benzo[d]imidazole-7-carboximidamide] | 437
CNCCNc1nc2c(F)c(F)cc(/C(=N/O)Nc3ccc(F)c(Cl)c3)c2[nH]1 [Example 395, N-(3-chloro-4-fluorophenyl)-4,5-difluoro-N′-hydroxy-2-((2-(methylamino)ethyl)amino)-1H-benzo[d]imidazole-7-carboximidamide] | 757
Nc1nc2cc(F)cc(/C(=N/O)Nc3cccc(Cl)c3)c2[nH]1 [Example 371, 2-amino-N-(3-chlorophenyl)-5-fluoro-N′-hydroxy-1H-benzo[d]imidazole-7-carboximidamide] | 644
CCNC(=O)NCCNc1nc2c(F)c(F)cc(/C(=N/O)Nc3ccc(F)c(Cl)c3)c2[nH]1 [Example 341, N-(3-chloro-4-fluorophenyl)-2-((2-(3-ethylureido)ethyl)amino)-4,5-difluoro-N′-hydroxy-1H-benzo[d]imidazole-7-carboximidamide] | > 10000
CN(C)[C@@H]1CCC[C@H]1Nc1nc2c(F)c(F)cc(/C(=N/O)Nc3ccc(F)c(Cl)c3)c2[nH]1 [Example 486, N-(3-chloro-4-fluorophenyl)-2-(((1R,2R)-2-(dimethylamino)cyclopentyl)amino)-4,5-difluoro-N′-hydroxy-1H-benzo[d]imidazole-7-carboximidamide] | 284
O/N=C(\Nc1cccc(Br)c1)c1ccnc2nc(NCCN3CCOCC3)[nH]c12 [Example 306, N-(3-bromophenyl)-N′-hydroxy-2-((2-morpholinoethyl)amino)-1H-imidazo[4,5-b]pyridine-7-carboximidamide] | 681
CN(C)[C@H]1CCC[C@H](Nc2nc3c(F)c(F)cc(/C(=N/O)Nc4ccc(F)c(Cl)c4)c3[nH]2)C1 [Example 439, N-(3-chloro-4-fluorophenyl)-2-(((1S,3S)-3-(dimethylamino)cyclohexyl)amino)-4,5-difluoro-N′-hydroxy-1H-benzo[d]imidazole-7-carboximidamide] | 6800
O=S1(=O)CCN(CCNc2nc3c(F)c(F)cc(/C(=N/O)Nc4ccc(F)c(Cl)c4)c3[nH]2)CC1 [Example 374, N-(3-chloro-4-fluorophenyl)-2-((2-(1,1-dioxidothiomorpholino)ethyl)amino)-4,5-difluoro-N′-hydroxy-1H-benzo[d]imidazole-7-carboximidamide] | 2400
